# Test results published in US12006330B2, “Substituted macrocyclic compounds and related methods of treatment” (Alkermes, Inc., priority 2020, dated 2024).
# Assays:
# [1] = Hepatocytes stability assay (human hepatocytes); format: in vitro ADME; details: both sexes, human, cryopreserved hepatocytes, cryopreserved human hepatocytes (pool of 50 mixed gender); 1 μM test compound; 1×10^6 cell/mL; 37 degrees C; read-out: CLint (μL/min/million cells)
# Method in brief: (§1)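 Compound at 1 μM (0.1% DMSO) was incubated with cryopreserved pooled human hepatocytes, 1×10^6 cells/mL in Krebs-Henseleit buffer, at 37 °C, sampled up to 240 min. Parent depletion by LC-MS/MS; half-life from first-order decay gave CLint, scaled to hepatic clearance by well-stirred model (fu assumed 1) and extraction ratio.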
# human hepatocytes = test: Hepatocytes stability assay (human hepatocytes); format: in vitro ADME; details: human hepatocytes; scaled hepatic clearance divided by liver blood flow (well-stirred model, fu assumed unity)
# Method in brief: as §1
# Sprague-Dawley rats = test: Assessment of wake promotion in Sprague-Dawley rats (EEG/EMG); format: in vivo, rat; details: male Sprague-Dawley rats, 3 mpk, dosed at ZT5, 6-hour post-dose period
# Protocol: Wake promotion was assessed using electroencephalography (EEG) and electromyography (EMG) in adult male Sprague-Dawley rats. All rats (Charles River Laboratories, Raleigh, NC, USA) were intraperitoneally implanted with telemetry devices (F50-EEE, Data Sciences International Inc., MN, USA) under isoflurane anesthesia. For EEG, stainless steel screws were implanted over frontal cortex and parietal cortex, and reference screws were placed over cerebellum. Additionally, an electrode was placed in neck muscle for EMG. Rats were given carprofen post-surgery and underwent a 7 to 10-day recovery period. Rats habituated to the experimental room for 7 days and were maintained on a 12-hour light-dark cycle.
# EEG and EMG data were recorded using the DSI telemetry system and Ponemah software (Data Sciences International Inc., MN, USA). Sleep-wake stages were scored both manually and with Somnivore, a supervised machine learning software platform, in 10 second epochs. Records were visually inspected as needed post-processing.
# All test compounds were dissolved in 5% DMSO and suspended in 95% saline with 0.5% methylcellulose and 0.5% tween. […] Unless otherwise indicated, all compounds were dosed orally. Recordings for each rat were initiated immediately after dosing and lasted for 6 hours post-dose.
# Two key endpoints include wakefulness time and cortical activation time. Wakefulness time is derived from the sleep-wake stage analysis. Cortical activation time is based on the duration in which frontal gamma oscillatory activity (30-100 Hz), a key feature of wakefulness, was elevated relative to a pre-treatment baseline. Mean cortical activation time was computed relative to vehicle treatment for the 6-hour post-dose period.
Compound,hepatocyte CLint at 1 μM [1] [µL/min/1e6 cells],Extraction Ratio (ER) (human hepatocytes),Mean cortical activation time (% vehicle treatment) (Sprague-Dawley rats; PO),Mean cortical activation time (% vehicle treatment) (Sprague-Dawley rats; SC)
O=C1COc2ccccc2[C@H]2CC[C@H](CC2)OCC2[C@@H](NS(=O)(=O)C(F)(F)F)CCN12 (stereo in doubt) [Compound 100],2.5,0.274,265.17,–
Cc1cccc2c1[C@H]1CC[C@H](CC1)OC[C@H]1[C@@H](NS(C)(=O)=O)CCN1C(=O)CO2 [Compound 20],27,0.80,154.26,–
CC(C)S(=O)(=O)N[C@H]1CCN2C(=O)COc3c(F)cc(F)cc3[C@H]3CC[C@H](CC3)OC[C@@H]12 [Compound 29],15,0.70,214.61,–
"COC(=O)N1CCC[C@H](NS(C)(=O)=O)[C@@H]1CO[C@H]1CC[C@@H](c2ccccc2)CC1 [Reference Compound A, methyl (2R,3S)-3-((methylsulfonyl)amino)-2-(((cis-4-phenylcyclohexyl)oxy)methyl)-piperidine-l-carboxylate, reference compound]",76,0.92,–,118.75
"CC(C)(O)C(=O)N1CC[C@H](NS(C)(=O)=O)[C@@H]1Cc1cccc(-c2cc(F)cc(F)c2)c1F [Reference Compound B, N-((2S,3S)-1-(2-hydroxy-2-methylpropanoy1)-2-((2,3′,5′-trifluorobipheny1-3-yl)methyl)pyrrolidin-3-yl)methanesulfonamide, reference compound]",1.5,0.19,110.4,–

# Second part, led by results:
hepatocyte CLint at 1 μM [1] [µL/min/1e6 cells],Extraction Ratio (ER) (human hepatocytes),Compound,Mean cortical activation time (% vehicle treatment) (Sprague-Dawley rats; PO),Mean cortical activation time (% vehicle treatment) (Sprague-Dawley rats; SC)
< 1.9,<0.22,Cc1ncnc2c1[C@H]1CC[C@H](CC1)OCC1[C@@H](NS(C)(=O)=O)CCCN1C(=O)CO2 (stereo in doubt) [Compound 27],138.57,–
4.8,0.42,O=C1COc2ncccc2[C@H]2CC[C@H](CC2)OCC2[C@@H](NS(=O)(=O)C(F)(F)F)CCCN12 (stereo in doubt) [Compound 91],151.55,–
< 1.9,<0.22,Cc1ccnc2c1[C@H]1CC[C@H](CC1)OCC1[C@@H](NS(=O)(=O)C(F)(F)F)CCN1C(=O)CO2 (stereo in doubt) [Compound 94],152.81,–
3.3,0.33,O=C1COc2cccc(F)c2[C@H]2CC[C@H](CC2)OCC2[C@@H](NS(=O)(=O)C(F)(F)F)CCCN12 (stereo in doubt) [Compound 95],312.26,–
< 1.4,<0.22,O=C1COc2nccnc2[C@H]2CC[C@H](CC2)OCC2[C@@H](NS(=O)(=O)C(F)(F)F)CCCN12 (stereo in doubt) [Compound 98],84.91,–
< 1.4,<0.22,Cc1ncnc2c1[C@H]1CC[C@H](CC1)OCC1[C@@H](NS(=O)(=O)C(F)(F)F)CCCN1C(=O)CO2 (stereo in doubt) [Compound 99],97.17,–
